{"source": "patent US11964954B1", "about": "(KING FAISAL UNIVERSITY, priority 2023, dated 2024)", "key": {"[1]": {"test_system": "human prostate cancer cells (PC3)", "assay": "Cytotoxicity by SRB assay, PC3 cells", "format": "cell-based", "details": "for IC50: mean±SD", "method": "(§1) The human prostate cancer cells (PC3) and human osteosarcoma cells (MG-63) were obtained from Nawah Scientific Inc. (Mokatam, Cairo, Egypt) and cultured in DMEM (Dulbecco's modified eagle's medium), Gibco, USA, supplemented with fetal bovine serum (FBS) at a concentration of 10% and 100 U/mL of penicillin and streptomycin (PS). The cells were incubated at 37° C. in a humidified environment that contained 5% CO2.\n(§2) Cells were seeded in 96-well plates as aliquots of 100 μL cell suspension and incubated in a complete media for 24 h. Afterward, cells were treated with N′-[(2-chlorobenzoyl)oxy]-1,3-benzothiazole-2-carboximidamide at diverse concentrations ranging from 0.01 μM to 100 μM for 72 h. Then, cells were fixed at 4° C. for one hour with 150 μL of 10% trichloroacetic acid (TCA). After washing the cells five times with distilled water, 70 μL of sulforhodamine (SRB) solution (0.4% w/v) was added and incubated for 10 min at room temperature in a dark place. Cells were washed with 1% acetic acid three times and allowed to air-dry. Then, 150 μL of Tris pH 10.5 (10 mM) was added, and the absorbance was measured at 540 nm using a BMG LABTECH®-FLUOstar Omega microplate reader (Ortenberg, Germany). Half maximal inhibitory concentrations (IC50) values were calculated for each experiment using GraphPad Prism 6 software. IC50 values were reported as mean±SD.\n(§3) The inhibition was calculated using the following equation: Inhibition %=100-Average Viability"}, "[2]": {"test_system": "human osteosarcoma cells (MG-63)", "assay": "Cytotoxicity by SRB assay, MG-63 cells", "format": "cell-based", "details": "for IC50: mean±SD", "method": "as §1, §2, §3"}, "[3]": {"test_system": "Bacillus cereus, Staphylococcus aureus, Pseudomonas aeruginosa, Escherichia coli, Aspergillus flavus, Chrysosporium keratinophilum", "assay": "Agar plate disc-diffusion antimicrobial screening", "format": "cell-based", "details": "10 μL of 10 mg/mL in DMSO per disc, result in words only", "method": "The agar plate disc-diffusion method was applied. Sterilized filter papers (6 mm in diameter) were wetted with 10 μL of a solution of each compound to be tested, containing 10 mg/mL in DMSO, and the discs were allowed to air dry. The discs were then placed onto the surface of agar plates (nutrient agar for bacteria and Sabouraud's dextrose agar for fungi) and seeded with the test organism. Each plate contained 15 mL of the agar medium, previously seeded with 0.2 mL of the broth culture of each organism pre-grown for 18 h. The plates were incubated at 37° C. for 48 h, and 72 h for fungi. The inhibition zones were measured in mm. Discs impregnated with DMSO were used as a control, and its inhibition zone was subtracted from the tested compound actual inhibition zone.\nIn particular, the present N′-[(2-chlorobenzoyl)oxy]-1,3-benzothiazole-2-carboximidamide was screened against gram positive bacteria, namely Bacillus cereus and Staphylococcus aureus, and gram-negative bacterial strains, namely Pseudomonas aeruginosa and Escherichia coli, while the antifungal activity was screened against Aspergillus flavus and Chrysosporium keratinophilum."}}}
{"smiles": "N/C(Cc1nc2ccccc2s1)=N\\OC(=O)c1ccccc1Cl", "values": [{"measurement": "inhibition at 10 µg/mL", "setting": "[1]; Homo sapiens, PC-3, 72 h, Prostate cancer (PC-3), 10 μg/ml, 72 h", "value": 95, "unit": "%"}, {"measurement": "inhibition at 100 µg/mL", "setting": "[1]; Homo sapiens, PC-3, 72 h, Prostate cancer (PC-3), 100 μg/ml, 72 h", "value": 96, "unit": "%"}, {"measurement": "IC50", "setting": "[1]; Homo sapiens, PC-3, 72 h", "value": "< 4", "unit": "µM"}, {"measurement": "IC50", "setting": "[1]; PC-3, 72 h", "value": "2.69 ± 0.03", "unit": "µM"}, {"measurement": "Inhibition %", "setting": "[1]; Prostate cancer (PC-3), 10 μg/ml, 72 h, listed as N'-[(2-chlorobenzoyl)oxy]-1,3-benzothiazole-2-carboximidamide", "value": 95.61, "unit": "%"}, {"measurement": "inhibition at 10 µg/mL", "setting": "[2]; Homo sapiens, MG-63, 72 h, Osteosarcoma (MG-63), 10 μg/ml, 72 h", "value": 95, "unit": "%"}, {"measurement": "inhibition at 100 µg/mL", "setting": "[2]; Homo sapiens, MG-63, 72 h, Osteosarcoma (MG-63), 100 μg/ml, 72 h", "value": 91.3, "unit": "%"}, {"measurement": "IC50", "setting": "[2]; Homo sapiens, MG-63, 72 h", "value": "< 4", "unit": "µM"}, {"measurement": "IC50", "setting": "[2]; MG-63, 72 h", "value": 3.45, "unit": "µM"}, {"measurement": "Inhibition %", "setting": "[2]; Osteosarcoma (MG-63), 10 μg/ml, 72 h, listed as N'-[(2-chlorobenzoyl)oxy]-1,3-benzothiazole-2-carboximidamide", "value": 90.17, "unit": "%"}, {"measurement": "antimicrobial activity", "setting": "[3]", "value": "excellent antimicrobial activities"}, {"measurement": "melting point", "value": "110 to 112", "unit": "°C"}]}
{"smiles": "COc1cccc2c1C(=O)c1c(O)c3c(c(O)c1C2=O)C[C@@](O)(C(=O)CO)C[C@@H]3O[C@H]1C[C@H](N)[C@H](O)[C@H](C)O1", "note": "[DOX, Doxorubicin, reference compound]", "values": [{"measurement": "IC50", "setting": "[1]; Homo sapiens, PC-3, 72 h", "value": "7.6 ± 0.45", "unit": "µM"}, {"measurement": "IC50", "setting": "[2]; Homo sapiens, MG-63, 72 h", "value": "9.4 ± 1.1", "unit": "µM"}]}
